Patent publication US20230116196A1, “METHOD OF TREATING CNS DISORDERS WITH NEU[…] GABAERGIC COMPOUNDS” (priority 2017, published 2023)

Legend:
[1] = test system: GABAA receptor β3 subunit S408/9; assay: Immunoblot of β3 S408/9 phosphorylation in hippocampal slices; type: cell-based, mouse; conditions: 20 min exposure (100 nM in FIG. 6)
Experimental: Asterisks represent a significant difference from control (ALLO: p<0.01, Student's t-test, n=10 slices, from 10 mice; SGE-516: p<0.05, Student's t-test, n=4 slices, from 4 mice). […] Asterisks represent a significant difference from control (ALLO: p<0.05, Student's t-test, n=8 slices; SGE-516: p<0.05, Student's t-test, n=4 slices).
Hippocampi were dissected out of acute slices from 8 to 12 week old C57/Bl6 mice and lysed with […] including: 20 mM Tris-HCl, 150 mM NaCl, 5 mM EDTA, 10 mM NaF, 2 mM Na3VO4, 10 mM pyrophosphate, 0.1% SDS and 1% Triton after drug treatment. The β3 subunit was isolated using immunoprecipitation with β3 antibodies, after correction for protein content and the specific activity of labeling. Results were attained by SDS/PAGE followed by autoradiography (Abramian et al., 2010). For biotinylation experiments hippocampi were dissected out of acute slices from 8 to 12 week old C57/Bl6 mice and incubated in artificial cerebrospinal fluid (ACSF) described above at 30° C. for 1 h for recovery before experimentation. Slices were then placed on ice and incubated for 30 min with 1 mg/mL NHS-SS-biotin (Pierce). Excess biotin was removed by a 50 mM glycine quenching buffer, followed by washing of slices three times in ice-cold ACSF. The tissue was snap frozen on dry ice for 5 min, thawed at 4° C. and lysed. The lysates were solubilized with 2% Triton at 4° C. on a rotating wheel for 1 h. The insoluble material was removed by centrifugation, and 350-500 μg of protein lysate were incubated with NeutrAvidin beads (Pierce) for 18-24 h at 4° C. Bound material was eluted with sample buffer and subjected to SDS/PAGE and then immunoblotted with the indicated antibodies. Blots were then quantified using the CCD-based ChemiDoc XRS ? system. Antibodies against the β3 subunit and the phospho-β3 antibody were generated and verified by the laboratory of S.J.M. (Vien et al., 2015).
Treatment of hippocampal slices with SGE-516 increased the phosphorylation of S408/9 measured using pS408/9 antibodies. To produce antibodies specific for phosphorylated S443, rabbits were injected with a synthetic peptide corresponding to residues […] of the murine α4 subunit in which the serine residue corresponding to S443 was chemically phosphorylated; […]. Hippocampal slices were treated with vehicle (Con), or SGE-516 for 20 min. Slices were immunoblotted with pS408/9, β3, or actin antibodies. The ratio of pS408/9/β3 immunoreactivity was then normalized to control slices (100%=the line).
Hippocampal slices were treated with 100 nM ALLO or P4 (progesterone), and S408/9 phosphorylation was then determined as detailed above, n=4 slices (FIG. 18D). Hippocampal slices were treated with 100 nM ORG (FIG. 18E). S408/9 phosphorylation was examined using immunoblotting. […]

[2] = test system: dentate gyrus granule cells (DGGCs); type: cell-based, mouse; conditions: for tonic current after exposure and washout: 30-60 min wash, vehicle control 43.9±5.7 pA; for concentration dependence of tonic current after exposure and washout: maximal effects at 1 μM; for tonic current versus vehicle treated slices with PKC inhibitor GFX: GFX 50 μM 15 min, then co-exposure 15 min, ≥30 min washout
Experimental: Brain slices were prepared from 3- to 5-week-old male C57 mice. Mice were anesthetized with isoflurane, decapitated, and brains were rapidly removed and submerged in ice-cold cutting solution containing (mM): 126 NaCl, 2.5 KCl, 0.5 CaCl2, 2 MgCl2, 26 NaHCO3, 1.25 NaH2PO4, 10 glucose, 1.5 sodium pyruvate, and 3 kynurenic acid. Coronal 310 μm thick slices were cut with the vibratome VT1000S (Leica Microsystems, St Louis, Mo., USA). The slices were then transferred into incubation chamber filled with prewarmed (31-32° C.) oxygenated artificial cerebro-spinal fluid (ACSF) of the following composition (in mM): 126 NaCl, 2.5 KCl, 2 CaCl2, 2 MgCl2, 26 NaHCO3, 1.25 NaH2PO4, 10 glucose, 1.5 sodium pyruvate, 1 glutamine, 3 kynurenic acid and 0.005 GABA bubbled with 95% O2-5% CO2. Slices were allowed to recover at 32° C. for at least 1 hr before recording. Exogenous GABA was added in an attempt to standardize ambient GABA in the slice and provide an agonist source for newly inserted extrasynaptic GABAARs.
After recovery, a single slice was transferred to a submerged, dual perfusion recording chamber (Warner Instruments, Hamden, Conn., USA) on the stage of an upright microscope (Nikon FN-1) with a 40× water immersion objective equipped with DIC/IR optics. Slices were maintained at 32° C. and gravity-superfused with ACSF solution throughout experimentation and perfused at rate of 2 ml/min with oxygenated (O2/CO2 95/5%) ACSF.
Whole-cell currents were recorded from the dentate gyrus granule cells (DGGCs) in 310-μm-thick coronal hippocampal slices. Patch pipettes (5-7MΩ) were pulled from borosilicate glass (World Precision Instruments) and filled with intracellular solution of the composition (in mM) as follows: 140 CsCl, 1 MgCl2, 0.1 EGTA, 10 HEPES, 2 Mg-ATP, 4 NaCl and 0.3 Na-GTP (pH=7.2 with CsOH). A 5 min period for stabilization after obtaining the whole-cell recording conformation (holding potential of −60 mV) was allowed before currents were recorded using an Axopatch 200B amplifier (Molecular Devices), low-pass filtered at 2 kHz, digitized at 20 kHz (Digidata 1440A; Molecular Devices), and stored for offline analysis.
For tonic current measurements, an all-points histogram was plotted for a 10 s period before and during 100 μM picrotoxin application, once the response reached a plateau level. Recordings with unstable baselines were discarded. Fitting the histogram with a Gaussian distribution gave the mean baseline current amplitude and the difference between the amplitudes before and during picrotoxin was considered to be the tonic current. The negative section of the all-points histogram which corresponds to the inward IPSCs was not fitted with a Gaussian distribution (Kretschmannova et al., 2013; Nusser and Mody, 2002). Series resistance and whole-cell capacitance were continually monitored and compensated throughout the course of the experiment. Recordings were eliminated from data analysis if series resistance increased by >20%. Spontaneous inhibitory post-synaptic currents (sIPSCs) were analyzed using the mini-analysis software (version 5.6.4; Synaptosoft, Decatur, Ga.). Minimum threshold detection was set to 3 times the value of baseline noise signal. To assess sIPSC kinetics, the recording trace was visually inspected and only events with a stable baseline, sharp rising phase, and single peak were used to negate artifacts due to event summation. Only recordings with a minimum of 200 events fitting these criteria were analyzed. sIPSCs amplitude, and frequency from each experimental condition was pooled and expressed as mean±SEM. To measure sIPSC decay, 100 consecutive events were averaged and the decay was fitted to a double exponential and the weighted decay constant (tw) was determined. Statistical analysis was performed by using Student t-test (paired and unpaired where appropriate), where p<0.05 is considered significant.

`CC(=O)[C@H]1CC[C@H]2[C@@H]3CC[C@H]4C[C@H](O)CC[C@]4(C)[C@H]3CC[C@]12C` [ALLO, Allopregnanolone] was tested, and the “β3 S408/409 phosphorylation in hippocampal slices” value [1] was “increases”, the “tonic current after 100 nM exposure and washout, WT slices” value [2] was “significant increase” and the “tonic current after exposure and washout” value ([2]; 1 μM, 15 min incubation) was 95.8±10.8 pA. The “concentration dependence of tonic current after exposure and washout” value ([2]; 15 min incubation, wash) was “concentration-dependent increase” and the “tonic current versus vehicle treated slices with PKC inhibitor GFX” value [2] was “no significant difference”.
For `CC(=O)[C@H]1CC[C@H]2[C@@H]3CC[C@H]4C[C@](C)(O)CC[C@]4(C)[C@H]3CC[C@]12C` [Ganaxolone], the “tonic current after exposure and washout” value ([2]; 1 μM, 15 min incubation) was 57.4±6.3 pA and the “magnitude of tonic current versus control” value ([2]; 1 μM, 15 min incubation, wash) was “did not significantly alter”.
For `C[C@@]1(O)CC[C@@]2(C)[C@H](CC[C@@H]3[C@@H]2CC[C@]2(C)[C@@H](C(=O)Cn4nccn4)CC[C@@H]32)C1` [SGE-516], the “β3 S408/409 phosphorylation in hippocampal slices” value [1] was “increases”, the “tonic current after 100 nM exposure and washout, WT slices” value [2] was “significant increased” and the “tonic current after exposure and washout” value ([2]; 1 μM, 15 min incubation) was 123.0±22.2 pA. The “concentration dependence of tonic current after exposure and washout” value ([2]; 15 min incubation, wash) was “concentration-dependent increase” and the “tonic current versus vehicle treated slices with PKC inhibitor GFX” value [2] was “no significant difference”.
